# Test results: patent US20200404914A1, “HERBICIDALLY ACTIVE BICYCLIC BENZAMIDES” (Bayer Aktiengesellschaft, priority 2018, published 2020)
# Legend:
# [1] = tested on: monocotyledonous and dicotyledonous weed plants; assay: Pre-emergence herbicidal action (greenhouse pot test, visual scoring after about 3 weeks); type: in vivo; settings: for Herbicidal activity ABUTH (Abutilon theophrasti) / Herbicidal activity AMARE (Amaranthus retroflexus) / Herbicidal activity AVEFA (Avena fatua) / Herbicidal activity CYPES (Cyperus esculentus) / Herbicidal activity ECHCG (Echinochloa crus-galli) / Herbicidal activity MATIN (Matricaria inodora) / Herbicidal activity PHBPU (Ipomoea purpurea) / Herbicidal activity POLCO (Polygonum convolvulus) / Herbicidal activity SETVI (Setaria viridis) / Herbicidal activity STEME (Stellaria media) / Herbicidal activity VERPE (Veronica persica) / Herbicidal activity VIOTR (Viola tricolor): pre-emergence (PE)
# Description: In the tables below, the following abbreviations are used: Undesired Plants/Weeds: [table] 1. Pre-Emergence Herbicidal Action and Crop Plant Compatibility Seeds of monocotyledonous and dicotyledonous weed plants and crop plants are placed in plastic or organic planting pots and covered with soil. The compounds of the invention, formulated in the form of wettable powders (WP) or as emulsion concentrates (EC), are then applied onto the surface of the covering soil as aqueous suspension or emulsion with addition of 0.5% additive at a water application rate of […] (converted). After the treatment, the pots are placed in a greenhouse and kept under good growth conditions for the trial plants. After about 3 weeks, the effect of the preparations is scored visually in comparison with untreated controls as percentages. The tables below show the herbicidal activity of numerous compounds according to the invention against important harmful plants. For example, 100% activity=the plants have died, 0% activity=like control plants.
# [2] = tested on: monocotyledonous and dicotyledonous weeds; assay: Post-emergence herbicidal action (greenhouse pot test, visual rating after about 3 weeks); type: in vivo; settings: for Herbicidal activity ABUTH (Abutilon theophrasti) / Herbicidal activity AMARE (Amaranthus retroflexus) / Herbicidal activity ECHCG (Echinochloa crus-galli) / Herbicidal activity MATIN (Matricaria inodora) / Herbicidal activity SETVI (Setaria viridis) / Herbicidal activity STEME (Stellaria media) / Herbicidal activity VERPE (Veronica persica) / Herbicidal activity VIOTR (Viola tricolor): post-emergence (PO)
# Protocol: In the tables below, the following abbreviations are used: Undesired Plants/Weeds: [table] 2. Post-Emergence Herbicidal Action and Crop Plant Compatibility Seeds of monocotyledonous and dicotyledonous weeds and crop plants are placed in sandy loam in plastic or organic planting pots, covered with soil and cultivated in a greenhouse under controlled growth conditions. 2 to 3 weeks after sowing, the test plants are treated at the one-leaf stage. The compounds of the invention, formulated in the form of wettable powders (WP) or as emulsion concentrates (EC), are then sprayed onto the green parts of the plants as aqueous suspension or emulsion with addition of 0.5% additive at a water application rate of […] (converted). After the test plants had been kept in the greenhouse under optimum growth conditions for about 3 weeks, the activity of the preparations is rated visually in comparison to untreated controls. The tables below show the herbicidal activity of numerous compounds according to the invention against important harmful plants. For example, 100% activity=the plants have died, 0% activity=like control plants.
# [3] = application rate 320, about 3 weeks
# [4] = application rate 80, about 3 weeks
# [5] = application rate 20, about 3 weeks
# [6] = pre-emergence comparative experiment, dosage 320 g/ha
# [7] = post-emergence comparative experiment, dosage 80 g/ha
Compound,"Herbicidal activity ABUTH (Abutilon theophrasti) [1, 3]","Herbicidal activity AMARE (Amaranthus retroflexus) [1, 3]","Herbicidal activity AVEFA (Avena fatua) [1, 3]","Herbicidal activity CYPES (Cyperus esculentus) [1, 3]","Herbicidal activity ECHCG (Echinochloa crus-galli) [1, 3]","Herbicidal activity MATIN (Matricaria inodora) [1, 3]","Herbicidal activity PHBPU (Ipomoea purpurea) [1, 3]","Herbicidal activity POLCO (Polygonum convolvulus) [1, 3]","Herbicidal activity SETVI (Setaria viridis) [1, 3]","Herbicidal activity STEME (Stellaria media) [1, 3]","Herbicidal activity VERPE (Veronica persica) [1, 3]","Herbicidal activity VIOTR (Viola tricolor) [1, 3]","Herbicidal activity ABUTH (Abutilon theophrasti) [2, 4]","Herbicidal activity AMARE (Amaranthus retroflexus) [2, 4]","Herbicidal activity ECHCG (Echinochloa crus-galli) [2, 4]","Herbicidal activity MATIN (Matricaria inodora) [2, 4]","Herbicidal activity SETVI (Setaria viridis) [2, 4]","Herbicidal activity STEME (Stellaria media) [2, 4]","Herbicidal activity VERPE (Veronica persica) [2, 4]","Herbicidal activity VIOTR (Viola tricolor) [2, 4]",other results
Cn1nnnc1NC(=O)c1ccc(C(F)(F)F)c2c1OCCC[S+]2[O-] (stereo not drawn) [2-16],100%,100%,80%,100%,100%,100%,80%,80%,100%,100%,100%,100%,100%,100%,100%,100%,90%,100%,90%,100%,–
Cn1nnnc1NC(=O)c1ccc(C(F)(F)F)c2c1OCCCS2(=O)=O [2-19],100%,100%,80%,100%,100%,100%,100%,90%,100%,100%,100%,100%,100%,100%,100%,90%,90%,100%,100%,100%,–
Cn1nnnc1NC(=O)c1ccc(C(F)(F)F)c2c1SCCCS2 [2-5],–,–,–,–,–,–,–,–,–,–,–,–,–,–,–,–,–,–,–,–,"Herbicidal activity ABUTH (Abutilon theophrasti) [1, 4]: 100%; Herbicidal activity AMARE (Amaranthus retroflexus) [1, 4]: 100%; Herbicidal activity ECHCG (Echinochloa crus-galli) [1, 4]: 100%; Herbicidal activity MATIN (Matricaria inodora) [1, 4]: 100%; Herbicidal activity STEME (Stellaria media) [1, 4]: 100%; Herbicidal activity VERPE (Veronica persica) [1, 4]: 100%; Herbicidal activity VIOTR (Viola tricolor) [1, 4]: 100%; Herbicidal activity ABUTH (Abutilon theophrasti) [2, 5]: 90%; Herbicidal activity AMARE (Amaranthus retroflexus) [2, 5]: 90%; Herbicidal activity ECHCG (Echinochloa crus-galli) [2, 5]: 90%; Herbicidal activity VIOTR (Viola tricolor) [2, 5]: 80%"
"Cn1nnnc1NC(=O)c1ccc(C(F)(F)F)c2c1OCCCS2 [2-13, 6-(trifluoromethyl)-3,4-dihydro-2H-1,5-benzoxathiepine-N-(1-methyltetrazol-5-yl)-8-carboxamide]",100%,100%,100%,90%,100%,100%,100%,100%,100%,100%,100%,100%,100%,100%,100%,80%,100%,100%,100%,100%,"Herbicidal action against ABUTH (Abutilon theophrasti) [1, 6]: 100%; Herbicidal action against ALOMY (Alopecurus myosuroides) [1, 6]: 100%; Herbicidal action against AVEFA (Avena fatua) [1, 6]: 100%; Herbicidal action against MATIN (Matricaria inodora) [1, 6]: 100%; Herbicidal action against SETVI (Setaria viridis) [1, 6]: 100%; herbicidal activity compared to that of compound No. A-117 ([1]; pre-emergence, comparative experiment, numerous harmful plants): superiority of the compound according to the invention was demonstrated clearly; Herbicidal action against ABUTH (Abutilon theophrasti) [2, 7]: 100%; Herbicidal action against ALOMY (Alopecurus myosuroides) [2, 7]: 90%; Herbicidal action against AVEFA (Avena fatua) [2, 7]: 100%; Herbicidal action against PHPBU [2, 7]: 90%; Herbicidal action against POLCO (Polygonum convolvulus) [2, 7]: 80%; herbicidal activity compared to that of compound No. A-117 ([2]; post-emergence, comparative experiment, numerous harmful plants): superiority of the compound according to the invention was demonstrated clearly"
Cn1nnnc1NC(=O)c1ccc(C(F)(F)F)c2c1[S+]([O-])CCCS2 (stereo not drawn) [2-76],–,–,–,–,–,–,–,–,–,–,–,–,–,–,–,–,–,–,–,–,"Herbicidal activity AMARE (Amaranthus retroflexus) [1, 4]: 90%; Herbicidal activity VIOTR (Viola tricolor) [1, 4]: 90%; Herbicidal activity ABUTH (Abutilon theophrasti) [2, 5]: 80%; Herbicidal activity ECHCG (Echinochloa crus-galli) [2, 5]: 90%"
